For data set [1], the system named is Pgp. On the set-up: method as in PMID 11318771. The following applies: earlier reports; cited from earlier work.
A short description of data set [2]: Oral pharmacokinetics of carbamazepine and carbamazepine 10,11-epoxide with and without BM pre-treatment. The data set is classed as in vivo, male Sprague-Dawley rat. The following applies: for CL/F / Cmax / AUC(0-inf) / MRT / AUC(0-∞): Mean ± SD. Here is the method: Samples were vigorously vortexed for five minutes and centrifuged at 12,000 rpm for 20 minutes at 4°C. Supernatant thus obtained were analysed using HPLC-UV method. […] Column efﬂuent was monitored at 286 nm. The mobile phase was a mixture of 10 mM ammonium acetate (pH 7.4) and acetonitrile (65∶35). Chromatography was performed at a ﬂow rate of 1.0 ml/min. Pharmacokinetic parameters of probe drugs in plasma were derived from plasma concentration-time profile of probe drugs by Non-Compartmental analysis using WinNonlin Ver 5.1 (Pharsight Corporation, Mountain Veiw, CA).

On the set-up of data set [3]: method as in PMID 15673597. The following applies: rat vs human; cited from earlier work.
For data set [4] the following is noted: 2 hours after digoxin 0.2 mg/kg oral, BM pretreated vs vehicle.
Data set [5] can be described thus: Oral pharmacokinetics of digoxin with and without BM pre-treatment. The data set is classed as in vivo, male Sprague-Dawley rat. The following applies: for AUC(0-inf) / CL/F / MRT / Vd/F / half-life / Cmax: male, Sprague-Dawley, rat, plasma, po, 0.2 mg/kg. From the text:
Rats were divided in two groups (total 40 rats; 10 rats each group) for both probe drugs viz. control and BM pre-treated group.
Pharmacokinetic parameters of probe drugs in plasma were derived from plasma concentration-time profile of probe drugs by Non-Compartmental analysis using WinNonlin Ver 5.1 (Pharsight Corporation, Mountain Veiw, CA).

[6] abbreviates: BM pre-treated vs vehicle treated rats, abstract.
[7] abbreviates: BM pretreated compared to vehicle pretreated rats.
Where [8] appears, read: BM pretreated rats (31 mg/kg/day 7 days), carbamazepine 50 mg/kg oral.
Setting [9] is: vehicle pretreated rats, carbamazepine 50 mg/kg oral.
[10] abbreviates: BM pre-treated compared to vehicle treated rats.
The mark [11] stands for this setting: BM pretreated rats (31 mg/kg/day 7 days), digoxin 0.2 mg/kg oral.
The mark [12] stands for this setting: vehicle pretreated rats, digoxin 0.2 mg/kg oral.

These results are taken from PMC3756011, “Evaluation of Memory Enhancing Clinically Available Standardized Extract of Bacopa monniera on P-Glycoprotein and Cytochrome P450 3A in Sprague-Dawley Rats” (PLoS ONE, 2013).

What is called Cmax is the maximum level reached in the sampled fluid or tissue. What is called AUC(0-inf) is total exposure, with the tail of the curve extrapolated. Usually MRT stands for a mean duration of stay, worked out from the concentration-time curve. As to `NC(=O)N1c2ccccc2C=Cc2ccccc21` [CBZ, carbamazepine], the Pgp substrate status entry in data set [1] is listed as “not a Pgp substrate”. The “increase in AUC following BM pre-treatment” value in data set [2] (setting [6]) worked out at 4 fold. Also, the “increase in Cmax following BM pre-treatment” value in data set [2] (setting [6]) is listed as 1.8 fold. Moreover, in data set [2] (setting [7]), the “decrease in CL/F in BM pretreated rats” value is recorded as 3.8 times. Besides, the “increase in mean AUC in BM pretreated rats” value in data set [2] (setting [7]) was 4 times. Moreover, in data set [2] (setting [7]), the “increase in mean Cmax in BM pretreated rats” value was determined as 1.8 times. The CL/F in data set [2] (male, Sprague-Dawley, rat, in vivo, po, 50 mg/kg, BM pretreated rats (31 mg/kg/day 7 days), carbamazepine 50 mg/kg oral, read-out: CL/F (converted)) is 323 mL/h/kg; in data set [2] (male, Sprague-Dawley, rat, in vivo, po, 50 mg/kg, vehicle pretreated rats, carbamazepine 50 mg/kg oral, read-out: CL/F (converted)), 1250 mL/h/kg. Further, the highest concentration (Cmax) in data set [2] (male, Sprague-Dawley, rat, plasma, po, 50 mg/kg, BM pretreated rats (31 mg/kg/day 7 days), carbamazepine 50 mg/kg oral 24 h after last BM, read-out: Cmax) stood at 14400 ± 1220 ng/mL; in data set [2] (male, Sprague-Dawley, rat, plasma, po, 50 mg/kg, vehicle pretreated rats, carbamazepine 50 mg/kg oral, read-out: Cmax), 8170 ± 1460 ng/mL. For the same compound, the AUC(0-inf) in data set [2] (male, Sprague-Dawley, rat, plasma, po, 50 mg/kg, BM pretreated rats (31 mg/kg/day 7 days), carbamazepine 50 mg/kg oral) is 169000 ± 65600 ng·h/mL; in data set [2] (male, Sprague-Dawley, rat, plasma, po, 50 mg/kg, vehicle pretreated rats, carbamazepine 50 mg/kg oral), 40400 ± 3890 ng·h/mL. For the same compound, the MRT was 10.7 ± 6.57 h in data set [2] (male, Sprague-Dawley, rat, plasma, po, 50 mg/kg, BM pretreated rats (31 mg/kg/day 7 days), carbamazepine 50 mg/kg oral, read-out: MRT) and 5.46 ± 1.2 h in data set [2] (male, Sprague-Dawley, rat, plasma, po, 50 mg/kg, vehicle pretreated rats, carbamazepine 50 mg/kg oral, read-out: MRT). Also, in data set [3], the “metabolic clearance, rat higher compared to human” value is 10 fold.
As for `NC(=O)N1c2ccccc2C2OC2c2ccccc21` (stereo not drawn) [CBZ-E, carbamazepine 10,11-epoxide], in data set [2] (BM pretreated rats (31 mg/kg/day 7 days), carbamazepine 50 mg/kg oral 24 h after last BM), the Cmax was determined as 819 ± 170 ng/mL. For the same compound, in data set [2] (setting [8]), the “AUC(0-∞)” value came out at 15100 ± 7360 ng·h/mL and the mean residence time (MRT) came out at 21.65 ± 7.69 h. Moreover, in data set [2] (setting [9]), the “AUC(0-∞)” value was 14680 ± 2900 ng·h/mL, the CL/F came to 3.31 ± 0.56 mL/h/kg, the Cmax turned out to be 1370 ± 11 ng/mL and the MRT is 10.05 ± 0.33 h.
One may read the Vd/F as the apparent distribution volume after extravascular dosing. Broadly, the half-life is the time needed for the level to fall by half in the phase considered. `C[C@H]1O[C@@H](O[C@H]2[C@@H](O)C[C@H](O[C@H]3[C@@H](O)C[C@H](O[C@H]4CC[C@@]5(C)[C@H](CC[C@@H]6[C@@H]5C[C@@H](O)[C@]5(C)[C@@H](C7=CC(=O)OC7)CC[C@]65O)C4)O[C@@H]3C)O[C@@H]2C)C[C@H](O)[C@@H]1O` [Digoxin, digoxin]: the “increase in tissue digoxin concentration in intestine” value in data set [4] (intestine) was 1.3 fold. Moreover, in data set [4] (kidney), the “increase in tissue digoxin concentration in kidney” value was 1.3 fold. In data set [5] (setting [10]), the “decrease in CL/F with BM pre-treatment” value is 27%, the “increase in AUC with BM pre-treatment” value came to 37%, the “increase in Cmax with BM pre-treatment” value came to 9% and the “increase in MRT with BM pre-treatment” value is recorded as 17%. Also, the “increase in T1/2 with BM pre-treatment” value in data set [5] (setting [10]) came to 48%. For the same compound, the “increase in AUC following BM pre-treatment” value in data set [5] (setting [6]) is 1.3 fold. For the same compound, in data set [5] (setting [11]), the AUC(0-inf) was determined as 70.71 ± 0.351 ng·h/mL, the CL/F is 3.53 mL/h/kg, the MRT was determined as 8.88 ± 1.28 h and the Vd/F stood at 0.0221 ± 0.0103 L/kg. In addition, the half-life in data set [5] (setting [11]) is 4.33 ± 2.03 h. Also, the Cmax in data set [5] (BM pretreated rats (31 mg/kg/day 7 days), digoxin 0.2 mg/kg oral 24 h after last BM) was 5.28 ± 0.205 ng/mL. Also, in data set [5] (setting [12]), the AUC(0-inf) turned out to be 51.5 ± 6.1 ng·h/mL, the CL/F is 4.88 mL/h/kg, the Cmax turned out to be 4.82 ± 0.092 ng/mL and the mean residence time (MRT) was 7.56 ± 0.0147 h. In addition, in data set [5] (setting [12]), the Vd/F was found to be 0.0208 ± 0.00471 L/kg and the half-life is 2.92 ± 0.322 h.
